Measured values: patent US11331299B2, “Medicinal use of serrulatane diterpenes” (The University of Sydney, priority 2016, dated 2022)
Where two headings read alike, the source gives them in different places.

Test system: 280 human cancer cell lines
Assay: OncoPanel cell proliferation assay (10-day)
Format: cell-based
Conditions: Homo sapiens; for EC50: read-out: Cell Count EC50; for GI50: read-out: Cell Count GI50; for IC50: read-out: Cell Count IC50
[1] = Caov-3, CaOV3, Female GU - Ovary
[2] = ChaGo-K-1, ChaGoK1, Lung - NSCLC
[3] = D341 Med, CNS - Medulloblastoma
[4] = Detroit 562, Detroit 562, Head and Neck
[5] = DoTc2-4510, DoTc2 4510, Lymphoma
[6] = G292, G-292, clone A141B1, Soft Tissue - Osteosarcoma
[7] = HEL 92.1.7, HEL-92-1-7, Leukemia
[8] = HOS, Soft Tissue - Osteosarcoma
[9] = HT-1080, HT-1080, Soft Tissue - Sarcoma
[10] = HUH-6-clone5, HUH-6 Clone 5, Liver
[11] = Hs 821.T, Soft Tissue - Sarcoma
[12] = Hs 888.Sk, Soft Tissue - Osteosarcoma

Structure (SMILES): CC(C)=CCC[C@@H]1C(O)Oc2c(C)cc(O)c3c2[C@H]1CC[C@H]3C (stereo partly shown) [Compound 2, 5,18-epoxyserrulat-14-en-8,18-diol]
- EC50 [1]: 10.2 µM
- GI50 [1]: 9.61 µM
- IC50 [1]: 10.2 µM
- EC50 (Capan-2, Capan-2, Pancreas): 8.64 µM
- GI50 (Capan-2, Capan-2, Pancreas): 8.48 µM
- IC50 (Capan-2, Capan-2, Pancreas): 8.64 µM
- EC50 [2]: 8.32 µM
- GI50 [2]: 8.26 µM
- IC50 [2]: 8.32 µM
- EC50 [3]: 19.2 µM
- GI50 [3]: 18.7 µM
- IC50 [3]: 19.2 µM
- EC50 (DB, Lymphoma): 3.23 µM
- GI50 (DB, Lymphoma): 3.24 µM
- IC50 (DB, Lymphoma): 3.25 µM
- EC50 (DBTRG-05MG, CNS - Glioma): 12.2 µM
- GI50 (DBTRG-05MG, CNS - Glioma): 12.8 µM
- IC50 (DBTRG-05MG, CNS - Glioma): 13 µM
- EC50 (DK-MG, CNS - Glioma): 1.64 µM
- GI50 (DK-MG, CNS - Glioma): > 30 µM
- IC50 (DK-MG, CNS - Glioma): > 30 µM
- EC50 (DLD-1, DLD-1, Colon): 10.7 µM
- GI50 (DLD-1, DLD-1, Colon): 11.2 µM
- IC50 (DLD-1, DLD-1, Colon): 11.2 µM
- EC50 (DMS-53, DMS53, Lung - SCLC): 5.91 µM
- GI50 (DMS-53, DMS53, Lung - SCLC): 5.75 µM
- IC50 (DMS-53, DMS53, Lung - SCLC): 5.95 µM
- EC50 (DMS-114, DMS114, Lung - SCLC): 11.5 µM
- GI50 (DMS-114, DMS114, Lung - SCLC): 13.1 µM
- IC50 (DMS-114, DMS114, Lung - SCLC): 13.8 µM
- EC50 (DOHH-2, DOHH-2, Lymphoma): 3.24 µM
- GI50 (DOHH-2, DOHH-2, Lymphoma): 3.24 µM
- IC50 (DOHH-2, DOHH-2, Lymphoma): 3.24 µM
- EC50 (DU-145, DU145, Prostate): 21 µM
- GI50 (DU-145, DU145, Prostate): 20.7 µM
- IC50 (DU-145, DU145, Prostate): 21 µM
- EC50 (Daoy, CNS - Medulloblastoma): 8.64 µM
- GI50 (Daoy, CNS - Medulloblastoma): 8.64 µM
- IC50 (Daoy, CNS - Medulloblastoma): 8.65 µM
- EC50 (Daudi, Lymphoma): 3.93 µM
- GI50 (Daudi, Lymphoma): 3.92 µM
- IC50 (Daudi, Lymphoma): 3.93 µM
- EC50 [4]: 14.5 µM
- GI50 [4]: 14.4 µM
- IC50 [4]: 14.5 µM
- EC50 [5]: 6.07 µM
- GI50 [5]: 5.84 µM
- IC50 [5]: 6.07 µM
- EC50 (EB2, Lymphoma): 23.3 µM
- GI50 (EB2, Lymphoma): 23 µM
- IC50 (EB2, Lymphoma): 23.3 µM
- EC50 (EB-3, Lymphoma): 9.72 µM
- GI50 (EB-3, Lymphoma): 9.71 µM
- IC50 (EB-3, Lymphoma): 9.72 µM
- EC50 (EFM-19, EFM-19, Breast): 11.2 µM
- GI50 (EFM-19, EFM-19, Breast): 10.6 µM
- IC50 (EFM-19, EFM-19, Breast): 11.2 µM
- EC50 (EM-2, Leukemia): 10.8 µM
- GI50 (EM-2, Leukemia): 10.8 µM
- IC50 (EM-2, Leukemia): 10.8 µM
- EC50 (FaDu, Head and Neck): 8.66 µM
- GI50 (FaDu, Head and Neck): 8.66 µM
- IC50 (FaDu, Head and Neck): 8.66 µM
- EC50 [6]: 8.8 µM
- GI50 [6]: 8.57 µM
- IC50 [6]: 8.8 µM
- EC50 (G-361, G-361, Skin (Melanoma)): 11.7 µM
- GI50 (G-361, G-361, Skin (Melanoma)): 11.8 µM
- IC50 (G-361, G-361, Skin (Melanoma)): 11.8 µM
- EC50 (G-401, G-401, Kidney): 26 µM
- GI50 (G-401, G-401, Kidney): 26.2 µM
- IC50 (G-401, G-401, Kidney): 26.2 µM
- EC50 (GA-10, GA-10, Lymphoma): 3.72 µM
- GI50 (GA-10, GA-10, Lymphoma): 3.73 µM
- IC50 (GA-10, GA-10, Lymphoma): 3.73 µM
- EC50 (H4, CNS - Glioma): 3.06 µM
- GI50 (H4, CNS - Glioma): > 30 µM
- IC50 (H4, CNS - Glioma): > 30 µM
- EC50 (HCT-15, HCT-15, Colon): 8.64 µM
- GI50 (HCT-15, HCT-15, Colon): 9.48 µM
- IC50 (HCT-15, HCT-15, Colon): 9.49 µM
- EC50 (HCT-116, HCT-116, Colon): 6.68 µM
- GI50 (HCT-116, HCT-116, Colon): 6.67 µM
- IC50 (HCT-116, HCT-116, Colon): 6.68 µM
- EC50 (HEC-1-A, Female GU - Uterus): 12.1 µM
- GI50 (HEC-1-A, Female GU - Uterus): 12 µM
- IC50 (HEC-1-A, Female GU - Uterus): 12.1 µM
- EC50 [7]: 13.4 µM
- GI50 [7]: 13.4 µM
- IC50 [7]: 13.4 µM
- EC50 (HLE, Liver): 10 µM
- GI50 (HLE, Liver): 16 µM
- IC50 (HLE, Liver): 16.4 µM
- EC50 (HLF, Liver): 13.7 µM
- GI50 (HLF, Liver): 15.6 µM
- IC50 (HLF, Liver): 15.7 µM
- EC50 (HMCB, Skin (Melanoma)): 6.68 µM
- GI50 (HMCB, Skin (Melanoma)): 6.57 µM
- IC50 (HMCB, Skin (Melanoma)): 6.68 µM
- EC50 [8]: 4.82 µM
- GI50 [8]: 4.81 µM
- IC50 [8]: 4.82 µM
- EC50 (HPAF-II, Pancreas): 9.46 µM
- GI50 (HPAF-II, Pancreas): 9.6 µM
- IC50 (HPAF-II, Pancreas): 9.62 µM
- EC50 (HT1197, HT-1197, Bladder): 10.7 µM
- GI50 (HT1197, HT-1197, Bladder): 10.3 µM
- IC50 (HT1197, HT-1197, Bladder): 10.7 µM
- EC50 (HT, Lymphoma): 6.51 µM
- GI50 (HT, Lymphoma): 6.43 µM
- IC50 (HT, Lymphoma): 6.51 µM
- EC50 (HT-3, Female GU - Cervix): 17.6 µM
- GI50 (HT-3, Female GU - Cervix): 18.6 µM
- IC50 (HT-3, Female GU - Cervix): 19.3 µM
- EC50 (HT-29, HT-29, Colon): 19.5 µM
- GI50 (HT-29, HT-29, Colon): 19.4 µM
- IC50 (HT-29, HT-29, Colon): 19.5 µM
- EC50 [9]: 3.31 µM
- GI50 [9]: 3.3 µM
- IC50 [9]: 3.31 µM
- EC50 (HT-1376, HT1376, Bladder): 4.71 µM
- GI50 (HT-1376, HT1376, Bladder): 4.47 µM
- IC50 (HT-1376, HT1376, Bladder): 4.71 µM
- EC50 [10]: 15.5 µM
- GI50 [10]: 15.3 µM
- IC50 [10]: 15.5 µM
- EC50 (HeLa, Female GU - Cervix): 16.6 µM
- GI50 (HeLa, Female GU - Cervix): 16.5 µM
- IC50 (HeLa, Female GU - Cervix): 16.6 µM
- EC50 (HepG2, HepG2, Liver): 6.74 µM
- GI50 (HepG2, HepG2, Liver): 6.86 µM
- IC50 (HepG2, HepG2, Liver): 6.95 µM
- EC50 (Hs 229.T, Lung - NSCLC): 29.3 µM
- GI50 (Hs 229.T, Lung - NSCLC): 28.6 µM
- IC50 (Hs 229.T, Lung - NSCLC): 29.8 µM
- EC50 (Hs 294T, Skin (Melanoma)): 7.01 µM
- GI50 (Hs 294T, Skin (Melanoma)): 6.72 µM
- IC50 (Hs 294T, Skin (Melanoma)): 7.01 µM
- EC50 (Hs 445, Hs 445, Lymphoma): 4.34 µM
- GI50 (Hs 445, Hs 445, Lymphoma): 4.23 µM
- IC50 (Hs 445, Hs 445, Lymphoma): 4.34 µM
- EC50 (Hs 611.T, Lymphoma): 10.7 µM
- GI50 (Hs 611.T, Lymphoma): 10.6 µM
- IC50 (Hs 611.T, Lymphoma): 10.7 µM
- EC50 (Hs 683, Hs 683, CNS - Glioma): 29.8 µM
- GI50 (Hs 683, Hs 683, CNS - Glioma): 28.3 µM
- IC50 (Hs 683, Hs 683, CNS - Glioma): 29.8 µM
- EC50 (Hs 688(A).T, Skin (Melanoma)): 11.6 µM
- GI50 (Hs 688(A).T, Skin (Melanoma)): 12.2 µM
- IC50 (Hs 688(A).T, Skin (Melanoma)): 13.2 µM
- EC50 (Hs746T, HS 746T, Stomach): > 30 µM
- GI50 (Hs746T, HS 746T, Stomach): > 30 µM
- IC50 (Hs746T, HS 746T, Stomach): > 30 µM
- EC50 (Hs766T, Hs 766T, Pancreas): 28.4 µM
- GI50 (Hs766T, Hs 766T, Pancreas): 26.2 µM
- IC50 (Hs766T, Hs 766T, Pancreas): 28.4 µM
- EC50 [11]: > 30 µM
- GI50 [11]: 13.9 µM
- IC50 [11]: > 30 µM
- EC50 [12]: 28.3 µM
- GI50 [12]: 27.9 µM
- IC50 [12]: 28.5 µM
- EC50 (Hs 934.T, Skin (Melanoma)): > 30 µM
- GI50 (Hs 934.T, Skin (Melanoma)): 24.1 µM
- IC50 (Hs 934.T, Skin (Melanoma)): > 30 µM
- EC50 (Hs 936.T(C1), Skin (Melanoma)): 3.62 µM
- GI50 (Hs 936.T(C1), Skin (Melanoma)): 3.74 µM
- IC50 (Hs 936.T(C1), Skin (Melanoma)): 3.76 µM
- EC50 (Hs-578T, Hs 578T, Breast): 28.7 µM
- GI50 (Hs-578T, Hs 578T, Breast): 28.2 µM
- IC50 (Hs-578T, Hs 578T, Breast): 28.7 µM
- EC50 (HuCCT-1, HuCCT1, Liver): 22.6 µM
- GI50 (HuCCT-1, HuCCT1, Liver): 22.6 µM
- IC50 (HuCCT-1, HuCCT1, Liver): 22.6 µM
- EC50 (HuP-T4, HuP-T4, Pancreas): > 30 µM
- GI50 (HuP-T4, HuP-T4, Pancreas): > 30 µM
- IC50 (HuP-T4, HuP-T4, Pancreas): > 30 µM
- EC50 (J82, Bladder): 12.9 µM
- GI50 (J82, Bladder): 12.7 µM
- IC50 (J82, Bladder): 12.9 µM
- EC50 (JAR, Placenta): > 30 µM
- GI50 (JAR, Placenta): > 30 µM
- IC50 (JAR, Placenta): > 30 µM
- EC50 (JEG-3, JEG-3, Placenta): > 30 µM
- GI50 (JEG-3, JEG-3, Placenta): > 30 µM
- IC50 (JEG-3, JEG-3, Placenta): > 30 µM
- EC50 (JIYOYE, Lymphoma): 17.8 µM
- GI50 (JIYOYE, Lymphoma): 17.7 µM
- IC50 (JIYOYE, Lymphoma): 17.8 µM
- EC50 (JeKo-1, JeKo-1, Lymphoma): 4.48 µM
- GI50 (JeKo-1, JeKo-1, Lymphoma): 4.47 µM
- IC50 (JeKo-1, JeKo-1, Lymphoma): 4.48 µM
- EC50 (Jurkat, Leukemia): 2.66 µM
- GI50 (Jurkat, Leukemia): 2.65 µM
- IC50 (Jurkat, Leukemia): 2.66 µM
- EC50 (K562, K562, Leukemia): 10.2 µM
- GI50 (K562, K562, Leukemia): 10.1 µM
- IC50 (K562, K562, Leukemia): 10.2 µM
- EC50 (KATO III, Stomach): 8.98 µM
- GI50 (KATO III, Stomach): 16.6 µM
- IC50 (KATO III, Stomach): 16.8 µM
- EC50 (KHOS-240S, Soft Tissue - Osteosarcoma): 4.59 µM
